Measurements reported in US20220220095A1, “N-((HETEROARYL)METHYL)-1-TOSYL-1H-PYRAZOLE-3-CARBOXAMIDE DERIVATIVES AS Kv3 POTASSIUM CHANNEL ACTIVATORS FOR TREATING NEUROLOGICAL AND [sequence] DISORDERS” (H. Lundbeck A/S, priority 2019, published 2022).

Biological target: T1, hKv3.1b (Homo sapiens, UniProt P48547)
T1 construct: expressed in transfected cells
T1 sequence (P48547 1-585 isoform P48547-2): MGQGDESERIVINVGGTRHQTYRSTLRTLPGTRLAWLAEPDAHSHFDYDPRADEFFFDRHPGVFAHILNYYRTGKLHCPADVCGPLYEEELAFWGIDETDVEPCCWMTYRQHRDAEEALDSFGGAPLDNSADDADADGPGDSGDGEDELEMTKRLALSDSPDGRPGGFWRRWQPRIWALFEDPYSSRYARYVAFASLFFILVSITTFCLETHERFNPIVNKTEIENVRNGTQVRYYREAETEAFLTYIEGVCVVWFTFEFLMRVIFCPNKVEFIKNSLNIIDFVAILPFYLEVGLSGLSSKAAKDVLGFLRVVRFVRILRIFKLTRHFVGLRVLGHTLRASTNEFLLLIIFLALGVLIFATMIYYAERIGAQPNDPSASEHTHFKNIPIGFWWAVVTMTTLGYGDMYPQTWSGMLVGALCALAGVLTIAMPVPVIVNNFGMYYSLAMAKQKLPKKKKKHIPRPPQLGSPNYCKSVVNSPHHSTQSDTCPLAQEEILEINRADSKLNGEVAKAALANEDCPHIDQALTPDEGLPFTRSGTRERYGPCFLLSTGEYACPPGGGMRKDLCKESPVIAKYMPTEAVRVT
Test: Automated whole-cell patch-clamp (QPatch-16x) on HEK-293 cells stably expressing hKv3.1b: shift of voltage threshold for channel activation
Format: cell-based
Conditions: HEK-293 hKv3.1b; for ECdelta5mV: concentration needed to shift the threshold 5 mV, read out from fitted concentration response curve; for Max Delta threshold: maximum absolute shift of activation threshold to more hyperpolarized potentials at the tested concentrations (0.37, 1.11, 3.33, 10, 30 μM)
Protocol: HEK-293 cells stably expressing hKv3.1b was used for the experiments. Cells were cultured in DMEM medium supplemented with 10% Fetal Bovine Serum, 100 ug/mL Geneticidin and 100 u/mL Penicillin/Streptomycin (all from Gibco). Cells were grown to 80-90% confluency at 37° C. and 5% CO2. On the day of the experiment the cells were detached from the tissue culture flasks by Detachin and resuspended in serum free medium containing 25 mM HEPES and transferred to the cell hotel of the QPatch. The cells were used for experiments 0-5 hours after detachment.
Patch-clamp recordings were performed using the automated recording system QPatch-16x (Sophion Bioscience, Denmark). Cells were centrifuged, SFM removed and the cells were resuspended in extracellular buffer containing (in mM): 145 NaCl, 4 KCl, 1 MgCl2, 2 CaCl2, 10 HEPES and 10 glucose (added fresh on the day of experiment); pH 7.4 adjusted with NaOH, 305 mOsm adjusted with sucrose.
Single cell whole-cell recordings were carried out using an intracellular solution containing (in mM): 120 KCl, 32.25/10 KOH/EGTA, 5.374 CaCl2, 1.75 MgCl2, 10 HEPES, 4 Na2ATP (added fresh on the day), pH 7.2 adjusted with KOH, […] adjusted with sucrose. Cell membrane potentials were held at −80 mV and currents were evoked by voltage steps (200 ms duration) from −70 mV to +10 mV (in 10 mV increments).
Leak subtraction protocol was applied at −33% of the sweep amplitude, and serial resistance values were constantly monitored.
Any cell where serial resistance exceeded 25 MOhm, membrane resistance less than 200 MOhm or current size at −10 mV less than 200 pA was eliminated from the subsequent analysis.
Data analysis was performed using Sophion's QPatch assay software in combination with Microsoft Excel™ (Redmond, Wash., USA).
Current voltage relationships were plotted from the peak current at the individual voltage steps normalized to the vehicle addition at 10 mV. The voltage threshold for channel activation was defined as 5% activation of the peak current at 10 mV in presence of vehicle. The activity of the compounds was described as the ability to shift this current voltage relationship to more hyperpolarized potentials and is given as the maximum absolute shift possible at the tested concentrations (0.37, 1.11, 3.33, 10, 30 μM). Concentration response curves were plotted from the threshold shift at the individual concentrations and were fitted excel fit model 205 sigmodal dose-response model (fit=A+((B−A)/1+((C/x)^D)))), where A is the minimum value, B the maximum value, C the EC50 value and D the slope of the curve. The concentration needed to shift the threshold 5 mV was readout from this curve (ECdelta 5 mV).

Row | ECdelta5mV | Max Delta threshold | Structure (SMILES)
1 | 3.8 µM | 16 mV | COc1ccc(S(=O)(=O)n2ccc(C(=O)NCc3ccon3)n2)cc1 [Compound 8, 1-(4-methoxybenzene-1-sulfonyl)-N-[(1,2-oxazol-3-yl)methyl]-1H-pyrazole-3-carboxamide]
2 | 3.4 µM | 17 mV | COc1ccc(S(=O)(=O)n2ccc(C(=O)NCc3ccno3)n2)cc1 [Compound 10, 1-(4-methoxybenzene-1-sulfonyl)-N-[(1,2-oxazol-5-yl)methyl]-1H-pyrazole-3-carboxamide]
3 | 4.5 µM | 14 mV | Cc1cc(CNC(=O)c2ccn(S(=O)(=O)c3ccccc3)n2)on1 [Compound 14, 1-(benzenesulfonyl)-N-[(3-methyl-1,2-oxazol-5-yl)methyl]-1H-pyrazole-3-carboxamide]
4 | 3.9 µM | 15 mV | Cc1cnc(CNC(=O)c2ccn(S(=O)(=O)c3ccccc3C)n2)o1 [Compound 17, 1-(2-methylbenzene-1-sulfonyl)-N-[(5-methyl-1,3-oxazol-2-yl)methyl]-1H-pyrazole-3-carboxamide]
5 | 7.3 µM | 13 mV | Cc1cccc(S(=O)(=O)n2ccc(C(=O)NCc3ncc(C)o3)n2)c1 [Compound 18, 1-(3-methylbenzene-1-sulfonyl)-N-[(5-methyl-1,3-oxazol-2-yl)methyl]-1H-pyrazole-3-carboxamide]
6 | 2.4 µM | 17 mV | Cc1cccc(S(=O)(=O)n2ccc(C(=O)NCc3cc(C)no3)n2)c1 [Compound 19, 1-(3-methylbenzene-1-sulfonyl)-N-[(3-methyl-1,2-oxazol-5-yl)methyl]-1H-pyrazole-3-carboxamide]
7 | 3.9 µM | 12 mV | Cc1ccc(CNC(=O)c2ccn(S(=O)(=O)c3cccc(C)c3)n2)nc1 [Compound 20, 1-(3-methylbenzene-1-sulfonyl)-N-[(5-methylpyridin-2-yl)methyl]-1H-pyrazole-3-carboxamide]
8 | 3.7 µM | 16 mV | Cc1cccc(S(=O)(=O)n2ccc(C(=O)NCc3cnn(C)c3)n2)c1 [Compound 21, 1-(3-methylbenzene-1-sulfonyl)-N-[(1-methyl-1H-pyrazol-4-yl)methyl]-1H-pyrazole-3-carboxamide]
9 | 3.7 µM | 14 mV | Cc1cccc(S(=O)(=O)n2ccc(C(=O)NCc3ccn(C)n3)n2)c1 [Compound 22, 1-(3-methylbenzene-1-sulfonyl)-N-[(1-methyl-1H-pyrazol-3-yl)methyl]-1H-pyrazole-3-carboxamide]
10 | 5.3 µM | 13 mV | Cc1noc(CNC(=O)c2ccn(S(=O)(=O)c3ccccc3C)n2)n1 [Compound 23, 1-(2-methylbenzene-1-sulfonyl)-N-[(3-methyl-1,2,4-oxadiazol-5-yl)methyl]-1H-pyrazole-3-carboxamide]
11 | 6.5 µM | 13 mV | Cc1cnc(CNC(=O)c2ccn(S(=O)(=O)c3ccccc3C)n2)nc1 [Compound 25, 1-(2-methylbenzene-1-sulfonyl)-N-[(5-methylpyrimidin-2-yl)methyl]-1H-pyrazole-3-carboxamide]
12 | 2.9 µM | 16 mV | Cc1ccccc1S(=O)(=O)n1ccc(C(=O)NCc2ccn(C)n2)n1 [Compound 26, 1-(2-methylbenzene-1-sulfonyl)-N-[(1-methyl-1H-pyrazol-3-yl)methyl]-1H-pyrazole-3-carboxamide]

The remaining lines, values behind:

Row | Structure (SMILES) | ECdelta5mV | Max Delta threshold
13 | COc1ccc(S(=O)(=O)n2ccc(C(=O)NCc3cnc(C)cn3)n2)cc1C [Compound 1, 1-(4-methoxy-3-methylbenzene-1-sulfonyl)-N-[(5-methylpyrazin-2-yl)methyl]-1H-pyrazole-3-carboxamide] | 1.8 µM | 23 mV
14 | COc1ccc(S(=O)(=O)n2ccc(C(=O)NCc3cnccn3)n2)c(C)c1 [Compound 3, 1-(4-methoxy-2-methylbenzene-1-sulfonyl)-N-[(pyrazin-2-yl)methyl]-1H-pyrazole-3-carboxamide] | 1.6 µM | 25 mV
15 | COc1ccc(S(=O)(=O)n2ccc(C(=O)NCc3cnccn3)n2)cc1C [Compound 4, 1-(4-methoxy-3-methylbenzene-1-sulfonyl)-N-[(pyrazin-2-yl)methyl]-1H-pyrazole-3-carboxamide] | 2.1 µM | 21 mV
16 | COc1ccc(S(=O)(=O)n2ccc(C(=O)NCc3cnc(C)cn3)n2)cc1 [Compound 5, 1-(4-methoxybenzene-1-sulfonyl)-N-[(5-methylpyrazin-2-yl)methyl]-1H-pyrazole-3-carboxamide] | 1.8 µM | 26 mV
17 | COc1ccc(S(=O)(=O)n2ccc(C(=O)NCc3nc(C)cs3)n2)cc1 [Compound 6, 1-(4-methoxybenzene-1-sulfonyl)-N-[(4-methyl-1,3-thiazol-2-yl)methyl]-1H-pyrazole-3-carboxamide] | 1.3 µM | 22 mV
18 | COc1ccc(S(=O)(=O)n2ccc(C(=O)NCc3cncnc3)n2)cc1 [Compound 7, 1-(4-methoxybenzene-1-sulfonyl)-N-[(pyrimidin-5-yl)methyl]-1H-pyrazole-3-carboxamide] | 2.9 µM | 18 mV
19 | COc1ccc(S(=O)(=O)n2ccc(C(=O)NCc3cnoc3)n2)cc1 [Compound 9, 1-(4-methoxybenzene-1-sulfonyl)-N-[(1,2-oxazol-4-yl)methyl]-1H-pyrazole-3-carboxamide] | 3.9 µM | 13 mV
20 | COc1ccc(S(=O)(=O)n2ccc(C(=O)NCc3cnc(C)nc3)n2)cc1 [Compound 11, 1-(4-methoxybenzene-1-sulfonyl)-N-[(2-methylpyrimidin-5-yl)methyl]-1H-pyrazole-3-carboxamide] | 2.4 µM | 29 mV
21 | COc1ccc(S(=O)(=O)n2ccc(C(=O)NCc3cocn3)n2)cc1 [Compound 12, 1-(4-methoxybenzene-1-sulfonyl)-N-[(1,3-oxazol-4-yl)methyl]-1H-pyrazole-3-carboxamide] | 3.8 µM | 16 mV
22 | COc1ccc(S(=O)(=O)n2ccc(C(=O)NCc3ncn(C)n3)n2)cc1 [Compound 13, 1-(4-methoxybenzene-1-sulfonyl)-N-[(1-methyl-1H-1,2,4-triazol-3-yl)methyl]-1H-pyrazole-3-carboxamide] | 4 µM | 16 mV
23 | Cc1ccc(S(=O)(=O)n2ccc(C(=O)NCc3ncc(C)cn3)n2)cc1 [Compound 15, 1-(4-methylbenzene-1-sulfonyl)-N-[(5-methylpyrimidin-2-yl)methyl]-1H-pyrazole-3-carboxamide] | 2.6 µM | 23 mV
24 | Cc1ccc(S(=O)(=O)n2ccc(C(=O)NCc3cnccn3)n2)cc1 [Compound 24, 1-(4-methylbenzene-1-sulfonyl)-N-[(pyrazin-2-yl)methyl]-1H-pyrazole-3-carboxamide] | 2 µM | 23 mV
25 | Cc1ccc(CNC(=O)c2ccn(S(=O)(=O)c3ccccc3C)n2)nc1 [Compound 27, 1-(2-methylbenzene-1-sulfonyl)-N-[(5-methylpyridin-2-yl)methyl]-1H-pyrazole-3-carboxamide] | 3.3 µM | 18 mV
